# Results as given in patent publication US12042523B2, “Compositions and methods for managing or improving bone disorders, joint disorders, cartilage disorders, or a combination thereof” (Unigen, Inc., priority 2014, dated 2024).
# Tests used:
# [1] = target: T1, BKB1 receptor (BKB1R) (Homo sapiens, UniProt P46663); assay: Bradykinin B1 (BKB1) radioligand binding assay
# T1 construct: Membranes from human IMR-90 lung fibroblasts, stimulated with IL-1β; endogenous in cells; host or cells: human IMR-90 lung fibroblasts stimulated with IL-1β (membranes)
# T1 sequence (P46663 1-353): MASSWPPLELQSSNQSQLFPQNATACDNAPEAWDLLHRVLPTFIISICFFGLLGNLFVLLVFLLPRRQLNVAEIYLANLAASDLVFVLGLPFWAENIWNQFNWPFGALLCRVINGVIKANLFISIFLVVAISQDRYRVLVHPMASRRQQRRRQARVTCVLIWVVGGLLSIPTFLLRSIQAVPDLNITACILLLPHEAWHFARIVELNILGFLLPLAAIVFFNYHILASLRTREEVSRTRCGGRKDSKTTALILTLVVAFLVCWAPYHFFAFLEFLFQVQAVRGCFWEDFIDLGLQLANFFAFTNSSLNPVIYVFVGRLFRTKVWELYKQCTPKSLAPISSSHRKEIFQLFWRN
# Procedure: Bradykinin B1 (BKB1) radioligand binding assay was conducted to determine the inhibition activity of Curcuma longa OE and extract fractions on BKB1 binding to BKB1 receptor (BKB1R). Membranes from human IMR-90 lung fibroblasts, stimulated with IL-1β in modified HEPES buffer (PH=7.4), were incubated with a test sample in the presence of 0.9 nM [^3H](Des-Arg^10)-Kallidin for 60 minutes at room temperature. After incubation, membranes were filtered and washed five times with modified DPBS buffer (pH=7.4). Samples were scintillation counted to determine the amount of specifically bound to the BKB1 receptor containing membrane.
# BKB1 binding assay, as described in Example 15, was used to test curcumin compound isolated from a Curcuma longa extract (Compound 11), as well as commercially available curcumin purchased from Sigma-Aldrich (C1386). Curcumin was tested at final concentrations ranging from 200 μM to 5 nM. Binding curves were plotted by non-linear regression fit (using GraphPad Prizm software). Ki values were computed using Cheng-Prusoff algorithm. In addition, inhibition of BKB2 receptor binding activity by curcumin was examined with methods similar to those described in Example 15 for the BKB1 receptor with some modifications. Bradykinin Radioligand Binding Assay (BKB2) was conducted using a standard assay under the following conditions: • 1. […] Reading: TopCount.
# [2] = test system: rhIL-1α-mediated degradation of proteoglycan in rabbit articular cartilage explants; assay: Ex vivo glycosaminoglycans (GAG) release assay; type: cell-based; conditions: for effect on rhIL-1α-mediated degradation of PG / % GAG release: rhIL-1α 5 ng/ml; for % GAG release: IL-1α alone = 100
# Procedure: Articular cartilage from hock joints of rabbits (2.5 kg body weight) was removed immediately after each animal was sacrificed and articular cartilage explants were obtained by following the method described by Sandy et al. (Biochem. Biophy Acta 543:36, 1978).
# Briefly, after the articular surfaces were surgically exposed under sterile conditions, approximately 200-220 mg articular surfaces per joint were dissected and submerged into complete medium (DMEM, supplemented with heat inactivated 5% FBS; penicillin 100 U/ml; streptomycin 100 ug/ml). They were then rinsed several times with the complete medium and incubated for 1 to 2 days at 37° C. in a humidified 5% CO2/95% air incubator for stabilization. The complete medium was replaced with a basal medium (DMEM, supplemented with heat-inactivated 1% FBS, 10 mM HEPES, and penicillin 100 U/ml streptomycin 100 μg/ml). Approximately 30 mg cartilage pieces (2×3×0.35 mm/piece) were placed in 24-well plates and treated with given concentrations of test agents. After pretreatment for 1 h, 5 ng/ml of rhIL-1α was added to the culture medium and further incubated at 37° C. in a humidified 5% CO2/95% air incubator. The culture medium was collected 24 h later and stored at −20° C. until assay.
# The amount of sulphated GAGs (e.g., released from proteoglycans) in the medium at the end of the reaction reflects the amount of articular cartilage degradation, which was determined using the commercially available 1,9-dimethy-methylene blue method according to the instructions of the manufacturer (Blyscan™ assay, Accurate Chemical and Scientific Corp., Westbury, New York).
smiles,measurement,setting,value
COc1cc(/C=C/C(=O)CC(=O)/C=C/c2ccc(O)c(OC)c2)ccc1O [Curcumin],BKB1 versus BKB2 binding inhibition,[1],selective BKB1 antagonist
CC(C)=CCc1c(-c2ccc(O)cc2O)oc2c3c(cc(O)c2c1=O)OC(C)(C)C=C3 [Morusin],effect on rhIL-1α-mediated degradation of PG,[2],strong inhibitory effect
"OC[C@H]1O[C@@H](Oc2cc(O)cc(/C=C/c3ccc(O[C@@H]4O[C@H](CO)[C@@H](O)[C@H](O)[C@H]4O)cc3O)c2)[C@H](O)[C@@H](O)[C@@H]1O [Mulberoside A, mulberroside A]",effect on rhIL-1α-mediated degradation of PG,[2],strong inhibitory effect
"CC(=O)N[C@H]1C(O)O[C@H](CO)[C@@H](O)[C@@H]1O (stereo partly drawn) [NAG, N-Acetyl Glucosamine]",inhibition at 150 µg/mL,"[2]; Oryctolagus cuniculus, 150 μg/ml, individual",31.8%
same,% GAG release,[2]; sample 12.5 μg/ml,95.7%
same,% GAG release,[2]; sample 25 μg/ml,99.2%
same,% GAG release,[2]; sample 50 μg/ml,87.5%
same,% GAG release,[2]; sample 75 μg/ml,81.2%
Oc1cc(O)cc(/C=C/c2ccc(O)cc2O)c1 [Oxyresveratrol],effect on rhIL-1α-mediated degradation of PG,[2],strong inhibitory effect
